Test results published in ChEMBL document CHEMBL1909046, “DrugMatrix in vitro pharmacology data”.

Columns and labels:
[1] = target: Beta-1 adrenergic receptor (Homo sapiens, UniProt P08588); test: DRUGMATRIX: Adrenergic beta1 radioligand binding (ligand: [125I] Cyanopindolol); assay type: cell membranes, CHO-K1, Membrane; conditions: cho-k1; Not Active = under 50% inhibition at 10 µM
Cytochrome P450 2C9 = Cytochrome P450 2C9 (Homo sapiens, UniProt P11712); conditions: bti-tn-5b1-4; further: in other assays of this panel Not Active means under 50% inhibition at 10 µM
Cytochrome P450 2C9, sequence (P11712 whole entry): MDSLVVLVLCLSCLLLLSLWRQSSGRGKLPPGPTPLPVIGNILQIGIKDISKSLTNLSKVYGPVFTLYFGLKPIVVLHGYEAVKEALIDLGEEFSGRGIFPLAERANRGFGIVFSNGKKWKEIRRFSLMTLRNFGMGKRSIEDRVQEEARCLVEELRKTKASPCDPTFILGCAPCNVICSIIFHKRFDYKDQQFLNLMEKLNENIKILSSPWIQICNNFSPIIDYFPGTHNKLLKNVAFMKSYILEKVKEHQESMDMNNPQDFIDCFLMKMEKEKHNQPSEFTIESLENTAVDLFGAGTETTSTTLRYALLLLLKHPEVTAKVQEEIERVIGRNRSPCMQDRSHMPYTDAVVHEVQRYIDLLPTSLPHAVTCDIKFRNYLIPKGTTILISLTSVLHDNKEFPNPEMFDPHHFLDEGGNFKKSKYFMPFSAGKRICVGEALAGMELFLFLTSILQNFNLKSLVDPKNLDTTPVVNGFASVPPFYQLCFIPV

Cytochrome P450 3A4 = Cytochrome P450 3A4 (Homo sapiens, UniProt P08684); conditions: bti-tn-5b1-4; further: in other assays of this panel Not Active means under 50% inhibition at 10 µM
Cytochrome P450 3A4, sequence (P08684 whole entry): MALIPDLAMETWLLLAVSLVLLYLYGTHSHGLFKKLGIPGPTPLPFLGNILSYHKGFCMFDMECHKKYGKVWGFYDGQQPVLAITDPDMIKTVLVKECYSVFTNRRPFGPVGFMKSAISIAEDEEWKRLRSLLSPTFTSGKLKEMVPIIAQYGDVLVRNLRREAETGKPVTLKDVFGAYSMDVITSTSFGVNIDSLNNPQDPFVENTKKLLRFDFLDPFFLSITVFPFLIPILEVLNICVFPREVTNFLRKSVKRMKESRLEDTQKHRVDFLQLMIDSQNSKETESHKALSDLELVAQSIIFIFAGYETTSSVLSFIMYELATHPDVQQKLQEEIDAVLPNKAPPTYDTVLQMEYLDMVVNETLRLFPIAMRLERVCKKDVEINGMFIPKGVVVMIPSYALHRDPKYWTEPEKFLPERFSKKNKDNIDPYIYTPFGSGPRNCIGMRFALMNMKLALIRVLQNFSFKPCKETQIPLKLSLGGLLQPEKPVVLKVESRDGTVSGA

[2] = DRUGMATRIX: Sigma2 radioligand binding (ligand: [3H] Ifenprodil); assay type: cell membranes, Rattus norvegicus, Wistar, Brain, Membrane; conditions: Not Active = under 50% inhibition at 10 µM
[3] = DRUGMATRIX: Phorbol Ester radioligand binding (ligand: [3H] PDBu); assay type: cell membranes, Mus musculus, ICR, Brain, Membrane; conditions: Not Active = under 50% inhibition at 10 µM
[4] = target: T1, Muscarinic acetylcholine receptor M2 (Homo sapiens, UniProt P08172); assay type: cell membranes, CHO-K1, Membrane; conditions: cho-k1; further: in other assays of this panel Not Active means under 50% inhibition at 10 µM
T1 sequence (P08172 whole entry): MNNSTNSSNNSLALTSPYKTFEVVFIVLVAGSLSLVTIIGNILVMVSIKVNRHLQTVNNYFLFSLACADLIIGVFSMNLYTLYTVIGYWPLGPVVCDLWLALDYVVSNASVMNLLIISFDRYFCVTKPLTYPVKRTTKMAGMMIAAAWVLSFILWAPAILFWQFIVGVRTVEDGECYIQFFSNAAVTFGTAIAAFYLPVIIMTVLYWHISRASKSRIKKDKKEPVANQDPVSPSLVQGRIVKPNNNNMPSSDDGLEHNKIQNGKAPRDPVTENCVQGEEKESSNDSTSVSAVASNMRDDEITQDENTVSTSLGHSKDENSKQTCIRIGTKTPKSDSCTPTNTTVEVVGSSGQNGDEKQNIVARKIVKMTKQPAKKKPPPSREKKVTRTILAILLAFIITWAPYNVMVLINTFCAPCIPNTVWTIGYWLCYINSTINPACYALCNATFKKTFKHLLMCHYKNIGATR

Beta-1 adrenergic receptor, sequence (P08588 whole entry): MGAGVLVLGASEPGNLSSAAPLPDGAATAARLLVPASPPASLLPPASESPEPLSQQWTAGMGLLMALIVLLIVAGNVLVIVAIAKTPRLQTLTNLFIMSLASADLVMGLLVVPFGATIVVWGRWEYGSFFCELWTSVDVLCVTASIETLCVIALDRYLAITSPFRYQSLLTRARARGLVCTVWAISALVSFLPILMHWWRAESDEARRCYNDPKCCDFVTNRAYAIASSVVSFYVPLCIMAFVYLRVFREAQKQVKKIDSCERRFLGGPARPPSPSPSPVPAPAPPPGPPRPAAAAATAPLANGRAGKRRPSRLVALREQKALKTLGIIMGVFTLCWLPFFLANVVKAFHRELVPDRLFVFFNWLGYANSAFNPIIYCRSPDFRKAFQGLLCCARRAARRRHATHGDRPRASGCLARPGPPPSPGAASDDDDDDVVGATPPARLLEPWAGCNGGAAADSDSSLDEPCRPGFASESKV

CCCN1C[C@H](CSC)C[C@@H]2c3cccc4[nH]cc(c34)C[C@H]21 [PERGOLIDE]
Not Active: IC50 [1] | IC50 (Cytochrome P450 2C9) | Ki (Cytochrome P450 2C9) | IC50 (Cytochrome P450 3A4) | Ki (Cytochrome P450 3A4) | IC50 [2] | Ki [2] | IC50 [3] | Ki [3] | IC50 [4]

Clc1cccc(Cl)c1NC1=NCCN1 [CLONIDINE]
Not Active: IC50 [1] | IC50 (Cytochrome P450 2C9) | Ki (Cytochrome P450 2C9) | IC50 (Cytochrome P450 3A4) | Ki (Cytochrome P450 3A4) | IC50 [2] | Ki [2] | IC50 [3] | Ki [3] | IC50 [4]

C=C(C)C1(O)OC(=O)C=C1OC (configuration not stated) [PENICILLIC ACID]
Not Active: IC50 [1] | IC50 (Cytochrome P450 2C9) | Ki (Cytochrome P450 2C9) | IC50 (Cytochrome P450 3A4) | Ki (Cytochrome P450 3A4) | IC50 [2] | Ki [2] | IC50 [3] | Ki [3] | IC50 [4]

C[C@H](CS)C(=O)N1CCC[C@H]1C(=O)O [CAPTOPRIL]
Not Active: IC50 [1] | IC50 (Cytochrome P450 2C9) | Ki (Cytochrome P450 2C9) | IC50 (Cytochrome P450 3A4) | Ki (Cytochrome P450 3A4) | IC50 [2] | Ki [2] | IC50 [3] | Ki [3] | IC50 [4]

C[C@H]1O[C@@H](O[C@H]2[C@@H](O)C[C@H](O[C@H]3[C@@H](O)C[C@H](O[C@H]4CC[C@@]5(C)[C@H](CC[C@@H]6[C@@H]5C[C@@H](O)[C@]5(C)[C@@H](C7=CC(=O)OC7)CC[C@]65O)C4)O[C@@H]3C)O[C@@H]2C)C[C@H](O)[C@@H]1O [DIGOXIN]
Not Active: IC50 [1] | IC50 (Cytochrome P450 2C9) | Ki (Cytochrome P450 2C9) | IC50 (Cytochrome P450 3A4) | Ki (Cytochrome P450 3A4) | IC50 [2] | Ki [2] | IC50 [3] | Ki [3] | IC50 [4]

CN(C)C(=O)Oc1cc(OC(=O)N(C)C)cc(C(O)CNC(C)(C)C)c1 (configuration not stated) [BAMBUTEROL]
Not Active: IC50 [1] | IC50 (Cytochrome P450 2C9) | Ki (Cytochrome P450 2C9) | IC50 (Cytochrome P450 3A4) | Ki (Cytochrome P450 3A4) | IC50 [2] | Ki [2] | IC50 [3] | Ki [3] | IC50 [4]

C[C@](N)(Cc1ccc(O)c(O)c1)C(=O)O [METHYLDOPA]
Not Active: IC50 [1] | IC50 (Cytochrome P450 2C9) | Ki (Cytochrome P450 2C9) | IC50 (Cytochrome P450 3A4) | Ki (Cytochrome P450 3A4) | IC50 [2] | Ki [2] | IC50 [3] | Ki [3] | IC50 [4]

CCOC(=O)C1=C(COCCN)NC(C)=C(C(=O)OC)C1c1ccccc1Cl (configuration not stated) [AMLODIPINE]
Not Active: IC50 [1] | IC50 (Cytochrome P450 2C9) | Ki (Cytochrome P450 2C9) | IC50 (Cytochrome P450 3A4) | Ki (Cytochrome P450 3A4) | IC50 [2] | Ki [2] | IC50 [3] | Ki [3] | IC50 [4]

LEAD (II) ACETATE
Not Active: IC50 [1] | Ki [1] | IC50 (Cytochrome P450 2C9) | Ki (Cytochrome P450 2C9) | IC50 (Cytochrome P450 3A4) | Ki (Cytochrome P450 3A4) | IC50 [2] | Ki [2] | IC50 [3] | Ki [3] | IC50 [4] | Ki [4]

CC(O)CO (configuration not stated) [PROPYLENE GLYCOL]
Not Active: IC50 [1] | IC50 (Cytochrome P450 2C9) | Ki (Cytochrome P450 2C9) | IC50 (Cytochrome P450 3A4) | Ki (Cytochrome P450 3A4) | IC50 [2] | Ki [2] | IC50 [3] | Ki [3] | IC50 [4]

CCCC1O[C@@H]2C[C@H]3[C@@H]4CCC5=CC(=O)C=C[C@]5(C)[C@H]4[C@@H](O)C[C@]3(C)[C@]2(C(=O)CO)O1 (some centres not stated) [BUDESONIDE]
Not Active: IC50 [1] | IC50 (Cytochrome P450 2C9) | Ki (Cytochrome P450 2C9) | IC50 (Cytochrome P450 3A4) | Ki (Cytochrome P450 3A4) | IC50 [2] | Ki [2] | IC50 [3] | Ki [3] | IC50 [4]

CC1Cc2ccccc2N1NC(=O)c1ccc(Cl)c(S(N)(=O)=O)c1 (configuration not stated) [INDAPAMIDE]
Not Active: IC50 [1] | IC50 (Cytochrome P450 2C9) | Ki (Cytochrome P450 2C9) | IC50 (Cytochrome P450 3A4) | Ki (Cytochrome P450 3A4) | IC50 [2] | Ki [2] | IC50 [3] | Ki [3] | IC50 [4]

CCC1(c2ccc(N)cc2)CCC(=O)NC1=O (configuration not stated) [AMINOGLUTETHIMIDE]
Not Active: IC50 [1] | IC50 (Cytochrome P450 2C9) | Ki (Cytochrome P450 2C9) | IC50 (Cytochrome P450 3A4) | Ki (Cytochrome P450 3A4) | IC50 [2] | Ki [2] | IC50 [3] | Ki [3] | IC50 [4]

Cc1ccccc1N1C(=O)c2cc(S(N)(=O)=O)c(Cl)cc2NC1C (configuration not stated) [METOLAZONE]
Not Active: IC50 [1] | IC50 (Cytochrome P450 2C9) | Ki (Cytochrome P450 2C9) | IC50 (Cytochrome P450 3A4) | Ki (Cytochrome P450 3A4) | IC50 [2] | Ki [2] | IC50 [3] | Ki [3] | IC50 [4]

C1CCC(C(CC2CCCCN2)C2CCCCC2)CC1 (configuration not stated) [PERHEXILINE]
Not Active: IC50 [1] | IC50 (Cytochrome P450 2C9) | Ki (Cytochrome P450 2C9) | IC50 (Cytochrome P450 3A4) | Ki (Cytochrome P450 3A4) | IC50 [2] | Ki [2] | IC50 [3] | Ki [3] | IC50 [4]
